Results published in patent US20250235545A1, “POLYPEPTIDE CONJUGATE AND USE THEREOF” (SHANGHAI CHIXI BIOMEDICAL TECHNOLOGY CO., LTD, priority 2024, published 2025).
Converted amounts (≈) assume the structure as drawn. Like-named read-outs stand apart in the source and are kept apart here.

What was measured:
[1] = system: sarcoma SJSA-1 tumor model; details: 5 mg/kg once a week for three weeks
Method: Test objective: To investigate the antitumor efficacy of the above compounds in an animal tumor model of sarcoma SJSA-1.
(§1) Test drug: Polypeptide conjugate, Irinotecan, Belotecan and normal saline control group.
(§2) Test animals: 6-8 weeks old BALB/c mice, all female.
(§3) SJSA-1 cells were purchased from ATCC and cultured in a DMEM medium containing 10% fetal bovine serum at 37° C. in 5% CO2. Passaging was performed every three days, and cells within 15 generations were used. 2×10^7 corresponding cells were injected into right chests of nude mice subcutaneously. After a volume of the tumors reached at least 100 mm^3, the mice were grouped randomly, with three mice in each group. Then treatment was started, and the day when the treatment was started was the first day. […] The control group was administered with normal saline. Administration was performed once a week for three weeks.
as §3

[2] = MTD determination in mice (Examples 27, 36, 44); assay type: in vivo; details: mice, monitored for 14 d
Source text: Test animals: 6-8 weeks old mice, all female; mice were grouped randomly, with six mice in each group, administered with drugs at different concentration gradients separately and monitored for 14 d. A mouse was euthanized at a loss of 20% of its initial weight and deemed to have died of poisoning.

[3] = system: colo320 colorectal cancer tumor model; details: 5 mg/kg once a week for four weeks
Method: Test objective: To investigate the antitumor efficacy of the above compounds in an animal tumor model of colo320 colorectal cancer.
as §1, §2
as §3, with “Passaging” for “SJSA-1 cells were purchased from ATCC and cultured in a DMEM medium containing 10% fetal bovine serum at 37° C. in 5% CO2. Passaging”, “used. 7.5×10^6” for “used. 2×10^7”, “least 120” for “least 100”, “for four” for “for three”

[4] = system: colo320 (colorectal cancer tissue); assay: cells; assay type: cell-based; details: CCK8, 48 h; Table 6
Method: (§4) Different types of cells were cultured with complete media (RPMI1640 (DMEM high sugar medium)+10% fetal bovine serum+1×P/S+sodium pyruvate 1 mM solution) in an incubator at 37° C. and 5% CO2 until the cells grew to a sufficient number, and the cells were collected, centrifuged at 1,000 g for 5 min, resuspended with an appropriate volume of a 10% RMPI1640 (DMEM high sugar medium) medium and adjusted to an appropriate density. In a 96-well culture plate, 100 μL of cell culture fluid containing different concentrations of drugs was added, control wells (0.1% DMSO) with only corresponding drug solvents without drugs, as well as blank wells (Blank) with only the medium but without cells were set, and three parallel wells were set in each group. After that, the cells after cell counting were inoculated onto 96-well culture plates, with 100 μL of cell suspension per well, and an inoculation concentration of the cells was 5,000 cells (100 μL)/well. The plates were then cultured in a CO2 (5%) incubator at 37° C. for 48 h. After 48 h, 10 μL of a cell proliferation staining reagent (CCK8) was added to each well, the plates were incubated in a cell incubator for around 2 h, and an absorbance at 450 nm was detected.
(§5) Cell survival rates and median inhibitory concentrations (IC50) of the drugs on the cells were calculated.

[5] = system: A549 (non-small cell lung cancer); assay: cells; assay type: cell-based; details: CCK8, 48 h; for IC50 A549 (non-small cell lung cancer): Table 1; for IC50 Non-small cell lung cancer tissue (A549): Table 6
Method: as §4, with “serum+1XP/S+sodium” for “serum+1×P/S+sodium”, “counted.” for “adjusted to an appropriate density.”
(§6) Cell survival rates and median inhibitory concentrations of the drugs on the cells were calculated.
as §4, §5

SJSA-1 (sarcoma tissue) = assay: cells; assay type: cell-based; details: CCK8, 48 h; for IC50 SJSA-1 (sarcoma tissue): Table 1; for IC50 Sarcoma tissue (SJSA-1): Table 6
Method: as §4, with “serum+1XP/S+sodium” for “serum+1×P/S+sodium”, “counted.” for “adjusted to an appropriate density.”
as §6, §4, §5

[6] = system: SKBR3 (breast cancer tissue); assay: cells; assay type: cell-based; details: CCK8, 48 h; for IC50 SKBR3 (breast cancer tissue): Table 1; for IC50 Breast cancer tissue (SKBR3): Table 6
Method: as §4, with “serum+1XP/S+sodium” for “serum+1×P/S+sodium”, “counted.” for “adjusted to an appropriate density.”
as §6, §4, §5

A2780 (ovarian cancer) = assay: cells; assay type: cell-based; details: CCK8, 48 h; for IC50 A2780 (ovarian cancer): Table 1; for IC50 Ovarian cancer tissue (A2780): Table 6
Method: as §4, with “serum+1XP/S+sodium” for “serum+1×P/S+sodium”, “counted.” for “adjusted to an appropriate density.”
as §6, §4, §5

SMILES	Mouse weight (%) ([1]; Table 2)	SJSA-1 (sarcoma tissue) mean tumor volume (mm^3) ([1]; Table 2)	SJSA-1 (sarcoma) Growth rate (%) ([1]; Table 2)	Mouse weight (%) ([1]; Table 7)	SJSA-1 (sarcoma tissue) growth rate (%) ([1]; Table 7)	SJSA-1 (sarcoma tissue) mean tumor volume (mm^3) ([1]; Table 7)	MTD ([2]; Table 4) [mg/kg]	MTD ([2]; Table 9) [mg/kg]	Mouse weight (%) ([3]; Table 3)	colo320 (colorectal cancer cell) growth rate (%) ([3]; Table 3)	colo320 (colorectal cancer cell) mean tumor volume (mm^3) ([3]; Table 3)	Mouse weight (%) ([3]; Table 8)	colo320 (colorectal cancer cell) growth rate (%) ([3]; Table 8)	colo320 (colorectal cancer cell) mean tumor volume (mm^3) ([3]; Table 8)	IC50 Colorectal cancer tissue (colo320) [4] [ng/mL]	IC50 A549 (non-small cell lung cancer) [5] [ng/mL]	IC50 Non-small cell lung cancer tissue (A549) [5] [ng/mL]	IC50 SJSA-1 (sarcoma tissue) (SJSA-1 (sarcoma tissue)) [ng/mL]	IC50 Sarcoma tissue (SJSA-1) (SJSA-1 (sarcoma tissue)) [ng/mL]	IC50 SKBR3 (breast cancer tissue) [6] [ng/mL]	further results
CC[C@@]1(O)C(=O)OCc2c1cc1n(c2=O)Cc2c-1nc1ccccc1c2CCNCC(C)C [D5]	−5%	1443.2	1248.78	−5%	1248.78	1443.2	30	30	+8%	991.91	1098.6	+8%	991.91	1098.6	29 (≈ 0.0648 µM)	19 (≈ 0.0425 µM)	19 (≈ 0.0425 µM)	12 (≈ 0.0268 µM)	12 (≈ 0.0268 µM)	13 (≈ 0.029 µM)	IC50 Breast cancer tissue (SKBR3) [6]: 13 ng/mL (≈ 0.029 µM); IC50 A2780 (ovarian cancer) (A2780 (ovarian cancer)): 14 ng/mL (≈ 0.0313 µM); IC50 Ovarian cancer tissue (A2780) (A2780 (ovarian cancer)): 14 ng/mL (≈ 0.0313 µM)
CC[C@@]1(O)C(=O)OCc2c1cc1n(c2=O)Cc2c-1nc1ccccc1c2CCNC1CC1 [D6]	+4%	961.3	828.71	+4%	831.80	961.3	10	10	−4%	715.73	787.3	−4%	710.84	787.3	4.8 (≈ 0.0111 µM)	2.5 (≈ 0.00579 µM)	2.5 (≈ 0.00579 µM)	1.8 (≈ 0.00417 µM)	1.8 (≈ 0.00417 µM)	3.8 (≈ 0.00881 µM)	IC50 Breast cancer tissue (SKBR3) [6]: 3.8 ng/mL (≈ 0.00881 µM); IC50 A2780 (ovarian cancer) (A2780 (ovarian cancer)): 2.9 ng/mL (≈ 0.00672 µM); IC50 Ovarian cancer tissue (A2780) (A2780 (ovarian cancer)): 2.9 ng/mL (≈ 0.00672 µM)
